Active and inactive are the calls of the source. No cut-off for these calls is given here.
Key:
Trypanosoma cruzi [1] = test: (§1) Antitrypanosomal activity against Trypanosoma cruzi MHOM/Pe/2011/Arequipa DTU 5 trypomastigotes infected in Balb/c mouse assessed as parasite-free spleen at 20 mg/kg, po pretreated once daily for 5 consecutive days starting from day 75 post infection followed by cyclophosphamide-induced immunosuppression on day 100 post infection every 4 days for a maximum of 3 doses measured on day 127 post infection by PCR method; type: functional, organism-based
Trypanosoma cruzi [2] = test: Trypanocidal activity against Trypanosoma cruzi TINF/CH/1956/Tulahuen DTU 6 epimastigotes after 48 to 72 hrs by resazurin dye based assay; type: functional, organism-based
Trypanosoma cruzi [3] = test: (§2) Antitrypanosomal activity against Trypanosoma cruzi MHOM/Pe/2011/Arequipa DTU 5 trypomastigotes infected in Balb/c mouse assessed as reduction in parasitaemia level at 20 mg/kg, po once daily for 5 consecutive days starting from day 10 post infection measured on day 23 post infection by Neubauer chamber method relative to control; type: functional; design: scale not given: the % may be the effect or the level left
[4] = Cardiotoxicity in Balb/c mouse infected with Trypanosoma cruzi MHOM/Pe/2011/Arequipa DTU 5 trypomastigotes assessed as decrease in serum LDH level at 20 mg/kg, po once daily for 5 consecutive days starting from day 10 post infection measured on day 16 post infection by biochemical analysis relative to control; type: toxicity, organism-based; design: scale not given: the % may be the effect or the level left; details: in vivo
[5] = (§3) Hepatotoxicity in Balb/c mouse infected with Trypanosoma cruzi MHOM/Pe/2011/Arequipa DTU 5 trypomastigotes assessed as decrease in ratio of serum AST to GOT level at 20 mg/kg, po once daily for 5 consecutive days starting from day 75 post infection measured on day 127 post infection relative to control; type: toxicity, organism-based; design: scale not given: the % may be the effect or the level left; details: in vivo
Vero = test: Cytotoxicity against African green monkey Vero cells assessed as reduction in cell viability after 48 to 72 hrs by resazurin dye based assay; details: Chlorocebus sabaeus
[6] = as §3, with “Cardiotoxicity” for “Hepatotoxicity”, “creatine kinase in muscle” for “serum AST”, “brain” for “GOT level”, “81” for “127”; type: toxicity, organism-based; design: scale not given: the % may be the effect or the level left; details: in vivo
Trypanosoma cruzi [7] = test: as §1, with “reduction in Ig-G level in serum” for “parasite-free spleen”, “ELISA” for “PCR method”; type: functional, organism-based
[8] = Toxicity in Balb/c mouse assessed as death at 20 mg/kg, po once daily for 5 consecutive days starting from day 75 post infection; type: organism-based; details: in vivo
[9] = Cardiotoxicity in Balb/c mouse infected with Trypanosoma cruzi MHOM/Pe/2011/Arequipa DTU 5 trypomastigotes assessed as decrease in serum LDH level at 20 mg/kg, po once daily for 5 consecutive days starting from day 75 post infection measured on day 81 post infection relative to control; type: toxicity, organism-based; design: scale not given: the % may be the effect or the level left; details: in vivo
Trypanosoma cruzi [10] = test: as §2, with “40” for “23”, “method” for “method relative to control”; type: functional, organism-based
[11] = Selectivity index, ratio of IC50 for African green monkey Vero cells to IC50 for Trypanosoma cruzi MHOM/Pe/2011/Arequipa DTU 5 epimastigotes; type: toxicity; details: read-out: Ratio IC50
[12] = as §3, with “81” for “127”; type: toxicity, organism-based; design: scale not given: the % may be the effect or the level left; details: in vivo
Trypanosoma cruzi [13] = test: Antitrypanosomal activity against Trypanosoma cruzi MHOM/Pe/2011/Arequipa DTU 5 epimastigotes assessed as effect on parasite glycolytic pathway by measuring decrease in pyruvate excretion at IC25 after 72 hrs by 1H NMR method; type: functional, organism-based
[14] = Selectivity index, ratio of IC50 for African green monkey Vero cells to IC50 for Trypanosoma cruzi IRHOD/CO/2008/SN3 DTU 1 epimastigotes; type: toxicity; details: read-out: Ratio IC50
Trypanosoma cruzi [15] = test: Trypanocidal activity against Trypanosoma cruzi IRHOD/CO/2008/SN3 DTU 1 amastigotes infected in African green monkey Vero cells after 72 hrs by Giemsa-staining based microscopic assay; type: functional, organism-based; details: IRHOD/CO/2008/SN3 DTU 1, Vero
Trypanosoma cruzi [16] = test: Antitrypanosomal activity against Trypanosoma cruzi MHOM/Pe/2011/Arequipa DTU 5 trypomastigotes infected in Balb/c mouse assessed as reduction in Ig-G level in serum at 20 mg/kg, po once daily for 5 consecutive days starting from day 75 post infection measured on day 81 post infection by ELISA; type: functional, organism-based
Trypanosoma cruzi [17] = test: as §1, with “muscle” for “spleen”; type: functional, organism-based
[18] = as §3, with “change” for “decrease”, “alkaline phosphatase” for “ratio of serum AST to GOT”, “(reference value: 149 U/L)” for “relative to control”; type: toxicity, organism-based; details: in vivo
Trypanosoma cruzi [19] = test: as §1, with “bone marrow” for “spleen”; type: functional
[20] = as §3, with “ALT” for “AST”, “GPT” for “GOT”, “81” for “127”; type: toxicity, organism-based; design: scale not given: the % may be the effect or the level left; details: in vivo
Trypanosoma cruzi [21] = test: as §1, with “brain” for “spleen”; type: functional, organism-based
Trypanosoma cruzi [22] = test: Trypanocidal activity against Trypanosoma cruzi MHOM/Pe/2011/Arequipa DTU 5 amastigotes infected in African green monkey Vero cells after 72 hrs by Giemsa-staining based microscopic assay; type: functional, organism-based; details: MHOM/Pe/2011/Arequipa DTU 5, Vero
Trypanosoma cruzi [23] = test: Trypanocidal activity against Trypanosoma cruzi MHOM/Pe/2011/Arequipa DTU 5 amastigotes infected in African green monkey Vero cells assessed as infected cells at 50 uM after 72 hrs by Giemsa-staining based assay relative to control; type: functional
[24] = Hepatotoxicity in Balb/c mouse infected with Trypanosoma cruzi MHOM/Pe/2011/Arequipa DTU 5 trypomastigotes assessed as increase in alkaline phosphatase level at 20 mg/kg, po once daily for 5 consecutive days starting from day 75 post infection measured on day 81 post infection relative to control; type: toxicity, organism-based; details: in vivo
Trypanosoma cruzi [25] = test: Inhibition of Trypanosoma cruzi MHOM/Pe/2011/Arequipa DTU 5 epimastigotes Fe-SOD at 50 uM by UV-Visible spectrophotometric method relative to control
[26] = Nephrotoxicity in Balb/c mouse infected with Trypanosoma cruzi MHOM/Pe/2011/Arequipa DTU 5 trypomastigotes assessed as serum uric acid level at 20 mg/kg, po once daily for 5 consecutive days starting from day 75 post infection measured on day 127 post infection (reference value: 4.8 mg/dl); type: toxicity, organism-based; details: in vivo
[27] = Hepatotoxicity in Balb/c mouse infected with Trypanosoma cruzi MHOM/Pe/2011/Arequipa DTU 5 trypomastigotes assessed as increase in serum ALT to GPT level at 20 mg/kg, po once daily for 5 consecutive days starting from day 10 post infection measured on day 16 post infection relative to control; type: toxicity, organism-based; details: in vivo
[28] = Hepatotoxicity in Balb/c mouse infected with Trypanosoma cruzi MHOM/Pe/2011/Arequipa DTU 5 trypomastigotes assessed as decrease in total bilirubin level at 20 mg/kg, po once daily for 5 consecutive days starting from day 75 post infection measured on day 127 post infection relative to control; type: toxicity, organism-based; design: scale not given: the % may be the effect or the level left; details: in vivo
[29] = Hepatotoxicity in Balb/c mouse infected with Trypanosoma cruzi MHOM/Pe/2011/Arequipa DTU 5 trypomastigotes assessed as increase in alkaline phosphatase level at 20 mg/kg, po once daily for 5 consecutive days starting from day 75 post infection measured on day 127 post infection relative to control; type: toxicity, organism-based; details: in vivo

SMILES | IC50 (Trypanosoma cruzi [2]) [µM] | Activity (Trypanosoma cruzi [3]) | IC50 (Vero) [µM] | Activity [6] | Activity (Trypanosoma cruzi [7]) | Activity [8] | Activity [9] | selectivity ratio [11] | Activity [12] | Activity (Trypanosoma cruzi [13]) | selectivity ratio [14] | IC50 (Trypanosoma cruzi [15]) [µM] | Activity (Trypanosoma cruzi [16]) | Activity [18] [U/L] | Activity (Trypanosoma cruzi [19]) [%] | Activity [20] | IC50 (Trypanosoma cruzi [22]) [µM] | Activity [24] | Activity [27] [%] | further results
Cl.Cl.Cl.NCCN(CCN)CCNCc1ccc2c(c1)Cc1ccccc1-2 | 30.7 | 72% | 1770 | <= 10% | Active | Non-Toxic | <= 10% | 66.3 | <= 10% | Active | 91.3 | 19.7 | inactive | 149 | 5.9 | <= 10% | 4.8 | – | – | Activity (Trypanosoma cruzi [1]): Active; Activity [4]: <= 10%; Activity [5]: <= 10%; Activity (Trypanosoma cruzi [10]): Active; Activity (Trypanosoma cruzi [17]): Active; Activity (Trypanosoma cruzi [21]): Active
Cl.Cl.Cl.Cl.Cl.Cl.c1ccc2nc(CNCCN(CCNCc3ccc4ccccc4n3)CCNCc3ccc4ccccc4n3)ccc2c1 | 19.5 | – | 1560 | – | inactive | Non-Toxic | – | 110 | <= 10% | Active | 112 | 1.6 | inactive | 149 | – | <= 10% | 2.4 | <= 20% | > 40 | Activity (Trypanosoma cruzi [23]): 0%; inhibition (Trypanosoma cruzi [25]): 82%; Activity [26]: 4.8 mg/dL; Activity [28]: <= 10%
O=C(Cn1ccnc1[N+](=O)[O-])NCc1ccccc1 [BENZNIDAZOLE] | – | Active | – | <= 10% | – | – | <= 10% | – | – | – | – | – | – | – | 75 | – | – | > 40% | > 40 | Activity [29]: <= 20%

— ChEMBL document CHEMBL4411300 (Eur J Med Chem, 2019)
